Assay [1] has as its target T1, Protein cereblon/Kinesin-like protein KIF11 (Homo sapiens, UniProt P52732+Q96SW2). Kind of assay: PROTAC activity at CRBN/KSP in human HCT-116 cells assessed as induction of KSP degradation incubated for 48 hrs by Western blot analysis. In kind it is cell-based.
The subject of assay [2] is HCT-116. Kind of assay: Induction of apoptosis in human HCT-116 cells assessed as necrotic cells at 10 nM incubated for 48 hrs by Annexin V-FITC/PI staining based flow cytometry analysis (reference value: 1.31 %). In kind it is functional. On the technique in general: In flow cytometry, cells or beads pass a laser one at a time.
In assay [3] the test system is HCT-116. Kind of assay: Induction of cell cycle arrest in human HCT-116 cells assessed as accumulation of cells at S phase at 100 nM incubated for 24 hrs by RNase A/propidium iodide staining based flow cytometric analysis (reference value: 2.84 %). It is filed as functional.
Assay [4] has as its system HCT-116. The assay is described as follows: Induction of cell cycle arrest in human HCT-116 cells assessed as accumulation of cells at G2/M phase at 10 nM incubated for 24 hrs by RNase A/propidium iodide staining based flow cytometric analysis (reference value: 4.05 %). In kind it is functional.
The test system of assay [5] is HCT-116. The assay is described as follows: Induction of apoptosis in human HCT-116 cells assessed as late apoptotic cells at 10 nM incubated for 48 hrs by Annexin V-FITC/PI staining based flow cytometry analysis (reference value: 1.36 %). It is filed as functional.
The test system of assay [6] is A549. Kind of assay: Antiproliferative activity against human A549 cells assessed as inhibition of cell proliferation measured after 72 hrs by CCK8 assay. In kind it is functional, cell-based. As to conditions: A549, 72 h. A general note: Tetrazolium dyes change colour on reduction, which living cells bring about; call rule not given here.
Assay [7] concerns the target T1, Protein cereblon/Kinesin-like protein KIF11. Kind of assay: PROTAC activity at CRBN/KSP in human HCT-116 cells assessed as induction of KSP degradation at 200 nM pretreated with MLN4924 for 2 hrs followed by compound addition for 24 hrs by Western blot analysis. It is filed as cell-based.
Target sequence in this assay (P52732 whole entry, looked up): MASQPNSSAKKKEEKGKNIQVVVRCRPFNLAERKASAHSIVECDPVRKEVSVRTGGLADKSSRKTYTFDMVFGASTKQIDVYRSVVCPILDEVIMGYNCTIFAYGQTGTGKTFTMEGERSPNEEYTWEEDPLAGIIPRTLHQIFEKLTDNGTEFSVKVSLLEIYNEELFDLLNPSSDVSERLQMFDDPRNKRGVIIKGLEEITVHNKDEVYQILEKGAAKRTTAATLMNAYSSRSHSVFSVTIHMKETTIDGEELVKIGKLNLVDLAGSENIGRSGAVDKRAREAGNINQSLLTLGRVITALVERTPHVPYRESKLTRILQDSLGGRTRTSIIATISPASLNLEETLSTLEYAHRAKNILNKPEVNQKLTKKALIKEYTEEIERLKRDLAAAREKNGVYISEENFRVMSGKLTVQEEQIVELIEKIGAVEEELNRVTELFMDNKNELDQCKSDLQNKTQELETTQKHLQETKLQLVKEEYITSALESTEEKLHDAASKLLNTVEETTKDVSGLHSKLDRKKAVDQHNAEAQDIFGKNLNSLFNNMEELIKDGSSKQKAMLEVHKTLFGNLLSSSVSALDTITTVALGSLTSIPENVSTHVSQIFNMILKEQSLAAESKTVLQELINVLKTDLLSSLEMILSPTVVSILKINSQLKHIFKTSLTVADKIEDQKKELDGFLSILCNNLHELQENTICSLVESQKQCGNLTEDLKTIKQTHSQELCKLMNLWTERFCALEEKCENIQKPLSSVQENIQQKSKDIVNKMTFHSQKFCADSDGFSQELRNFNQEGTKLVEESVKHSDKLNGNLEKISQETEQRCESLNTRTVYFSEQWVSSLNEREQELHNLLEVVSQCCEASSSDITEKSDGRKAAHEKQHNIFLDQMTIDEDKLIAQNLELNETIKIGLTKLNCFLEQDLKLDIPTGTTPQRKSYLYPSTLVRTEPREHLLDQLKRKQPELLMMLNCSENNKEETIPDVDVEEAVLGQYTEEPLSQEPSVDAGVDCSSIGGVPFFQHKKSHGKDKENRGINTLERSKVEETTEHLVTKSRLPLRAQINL
Target sequence in this assay (Q96SW2 whole entry, looked up): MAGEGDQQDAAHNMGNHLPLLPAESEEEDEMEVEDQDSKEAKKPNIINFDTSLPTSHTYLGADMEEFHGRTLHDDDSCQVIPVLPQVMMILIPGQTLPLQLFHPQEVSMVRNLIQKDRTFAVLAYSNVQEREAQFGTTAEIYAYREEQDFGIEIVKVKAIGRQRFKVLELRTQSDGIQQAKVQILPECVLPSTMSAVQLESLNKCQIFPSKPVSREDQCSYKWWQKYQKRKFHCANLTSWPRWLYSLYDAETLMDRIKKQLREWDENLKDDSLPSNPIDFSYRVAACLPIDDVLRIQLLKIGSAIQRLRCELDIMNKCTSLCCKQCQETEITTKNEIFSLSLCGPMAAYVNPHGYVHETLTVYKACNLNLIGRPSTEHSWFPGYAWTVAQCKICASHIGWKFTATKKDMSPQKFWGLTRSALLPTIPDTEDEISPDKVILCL
Assay [8] has as its system HCT-116. The assay is described as follows: Induction of cell cycle arrest in human HCT-116 cells assessed as accumulation of cells at G1 phase at 100 nM incubated for 24 hrs by RNase A/propidium iodide staining based flow cytometric analysis (reference value: 93.11 %). In kind it is functional.
The subject of assay [9] is HCT-116. Kind of assay: Induction of cell cycle arrest in human HCT-116 cells assessed as accumulation of cells at S phase at 10 nM incubated for 24 hrs by RNase A/propidium iodide staining based flow cytometric analysis (reference value: 2.84 %). In kind it is functional.

By DC50 is commonly meant the concentration giving 50% degradation. Usually IC50 stands for the point on the concentration scale where inhibition reaches its midpoint. As to `COc1ccc(C2(SC[C@H](N)C(=O)NCCCCCCCCNC(=O)COc3cccc4c3C(=O)N(C3CCC(=O)NC3=O)C4=O)c3ccccc3C=Cc3ccccc32)cc1` (stereo not given in full), the Activity result was “Dose-dependent-effect” in assay [1]; 13.67% in [2]; 14.97% in assay [3]; 14.79% in assay [4]; 14.96% in assay [5]; “Not active; Compound Induced Ksp Degradation In Mediated Through Ubiquitin-Proteosome System” in assay [7]. Also, the figures for the Activity in assay [8] and in assay [9] were 9.98% and 9.87%, respectively. The DC50 in assay [1] came to 115 nM. In assay [6], the half-inhibitory concentration (IC50) turned out to be 160 nM.

Source of the values: ChEMBL document CHEMBL6096664, “Discovery of novel KSP-targeting PROTACs with potent antitumor effects in vitro and in vivo” (Eur J Med Chem, 2025).
